Measurements from ChEMBL document CHEMBL4428029, “Notch Antagonists: Potential Modulators of Cancer and Inflammatory Diseases” (J Med Chem, 2016).
Each block holds one compound with its values, some of them ahead of it. Residues, ends and D or L forms follow the SMILES beside them. *: point of attachment. Decanoyl = CCCCCCCCCC(=O)*; CH2Cl = ClC*

Legend:
A549 = test: Antitumor activity against human A549 cells xenografted in nude mouse assessed as tumor growth inhibition at 3 to 60 mg/kg qd or bid administered via oral gavage for 7 to 21 days relative to vehicle treated control; type: functional
Gamma-secretase [1] = test: Inhibition of gamma secretase mediated Notch1 signaling in HEK293 cells expressing truncated human Notch1 by luciferase reporter gene assay; type: cell-based
Gamma-secretase [2] = test: Inhibition of gamma secretase in HEK293 cells expressing APP695 assessed as reduction in amyloid beta (1 to 40 residues) by ELISA; type: cell-based, Homo sapiens
Gamma-secretase [3] = test: Inhibition of gamma secretase in human primary neuronal cells assessed as reduction in amyloid beta 40
Gamma-secretase [4] = test: Inhibition of gamma secretase (unknown origin) mediated Notch signaling by cell based luciferase reporter gene assay
Gamma-secretase [5] = test: Inhibition of gamma secretase mediated amyloid beta level reduction in HEK293 cells expressing APP after 72 hrs by chemiluminescence assay; type: cell-based, Homo sapiens
Gamma-secretase [6] = test: Inhibition of gamma secretase mediated Notch delta E activation in human HeLa cells expressing EGFP after 16 hrs by immunofluorescence analysis; type: cell-based
[7] = molecular target: T1, Neuroendocrine convertase 1 (Homo sapiens, UniProt P29120); test: Inhibition of recombinant C-terminal truncated human SPC3 expressed in drosophila Schneider 2 cells after 1 hr by spectrofluorometry; type: cell-based
T1 sequence (P29120 whole entry): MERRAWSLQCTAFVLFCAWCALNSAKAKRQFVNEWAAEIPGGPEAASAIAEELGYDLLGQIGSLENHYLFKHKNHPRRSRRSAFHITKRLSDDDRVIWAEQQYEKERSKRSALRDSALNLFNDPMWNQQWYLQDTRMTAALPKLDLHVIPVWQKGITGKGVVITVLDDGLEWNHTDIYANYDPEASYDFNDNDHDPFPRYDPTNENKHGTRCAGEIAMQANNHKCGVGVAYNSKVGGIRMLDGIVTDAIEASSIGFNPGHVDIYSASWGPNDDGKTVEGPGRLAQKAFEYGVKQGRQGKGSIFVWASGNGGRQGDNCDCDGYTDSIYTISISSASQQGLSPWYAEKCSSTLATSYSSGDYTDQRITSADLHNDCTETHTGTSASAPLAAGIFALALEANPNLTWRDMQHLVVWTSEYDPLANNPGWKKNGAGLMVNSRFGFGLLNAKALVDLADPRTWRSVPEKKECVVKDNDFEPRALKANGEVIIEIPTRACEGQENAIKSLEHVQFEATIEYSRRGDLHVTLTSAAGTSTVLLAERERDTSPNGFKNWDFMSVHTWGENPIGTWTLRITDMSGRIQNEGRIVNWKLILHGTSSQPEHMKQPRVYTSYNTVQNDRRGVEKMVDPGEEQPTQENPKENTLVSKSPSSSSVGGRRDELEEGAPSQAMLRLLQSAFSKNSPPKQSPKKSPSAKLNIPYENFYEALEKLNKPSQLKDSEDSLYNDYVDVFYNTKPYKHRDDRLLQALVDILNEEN

[8] = molecular target: T2, Neuroendocrine convertase 2 (Homo sapiens, UniProt P16519); test: Inhibition of recombinant C-terminal truncated human SPC2 expressed in drosophila Schneider 2 cells after 1 hr by spectrofluorometry; type: cell-based
T2 sequence (P16519 whole entry): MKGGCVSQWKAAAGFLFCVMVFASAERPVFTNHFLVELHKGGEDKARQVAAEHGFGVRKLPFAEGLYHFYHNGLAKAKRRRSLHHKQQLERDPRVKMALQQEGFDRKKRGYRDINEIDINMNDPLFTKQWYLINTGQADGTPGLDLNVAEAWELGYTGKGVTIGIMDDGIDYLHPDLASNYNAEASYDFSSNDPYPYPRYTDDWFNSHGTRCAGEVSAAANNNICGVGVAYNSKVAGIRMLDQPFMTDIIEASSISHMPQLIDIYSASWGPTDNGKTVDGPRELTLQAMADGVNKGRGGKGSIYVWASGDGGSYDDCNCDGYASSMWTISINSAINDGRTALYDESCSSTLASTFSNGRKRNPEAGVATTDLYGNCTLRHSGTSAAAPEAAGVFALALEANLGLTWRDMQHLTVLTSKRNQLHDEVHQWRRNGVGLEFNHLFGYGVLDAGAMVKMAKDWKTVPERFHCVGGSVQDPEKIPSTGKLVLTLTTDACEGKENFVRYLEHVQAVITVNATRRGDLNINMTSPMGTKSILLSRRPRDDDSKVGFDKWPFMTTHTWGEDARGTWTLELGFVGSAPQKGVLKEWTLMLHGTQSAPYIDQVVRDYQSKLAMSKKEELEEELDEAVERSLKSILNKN

Gamma-secretase [9] = test: Inhibition of gamma secretase mediated Notch signaling in human SupT1 cells after 16 hrs by chemiluminescence assay; type: cell-based
Gamma-secretase [10] = test: Inhibition of gamma secretase in human SupT1 cells assessed as reduction in amyloid beta 40 after 16 hrs by chemiluminescence assay; type: cell-based
Gamma-secretase [11] = test: Inhibition of gamma secretase in human MCF7 cells assessed as reduction in amyloid beta 40 after 3 days by Western blot analysis
Gamma-secretase [12] = test: Inhibition of gamma secretase (unknown origin); type: protein-complex assay, Homo sapiens
Gamma-secretase [13] = test: Inhibition of gamma secretase (unknown origin) mediated Notch signaling; type: protein-complex assay, Homo sapiens
Gamma-secretase [14] = test: Inhibition of gamma secretase (unknown origin) assessed as reduction in amyloid beta levels by HTRF assay; type: protein-complex assay, Homo sapiens
Gamma-secretase [15] = test: Inhibition of full-length human gamma secretase expressed in SH-SY5Y spbetaA4CTF cells assessed as reduction in amyloid beta levels after 90 mins by HTRF assay; type: cell-based
Gamma-secretase [16] = test: Inhibition of gamma secretase (unknown origin) mediated Notch M1726V mutant activation in CHO K1 cells after 48 hrs by chemiluminescence assay
Gamma-secretase [17] = test: Inhibition of gamma secretase (unknown origin) mediated APP cleavage in CHO cells expressing APP Swedish KM/NL mutant assessed as reduction in amyloid beta 40 after 24 hrs by sandwich ELISA
[18] = molecular target: Disintegrin and metalloproteinase domain-containing protein 17 (Homo sapiens, UniProt P78536); test: Inhibition of ADAM17 (unknown origin) assessed as blockage of TNF-alpha shedding
Gamma-secretase [19] = test: Inhibition of gamma secretase (unknown origin) mediated Notch activation; type: protein-complex assay, Homo sapiens
Gamma-secretase [20] = test: Modulation of gamma secretase (unknown origin) assessed as reduction in amyloid beta levels; type: protein-complex assay, Homo sapiens

Chain of Disintegrin and metalloproteinase domain-containing protein 17 (P78536 whole entry, the tested form may be a part): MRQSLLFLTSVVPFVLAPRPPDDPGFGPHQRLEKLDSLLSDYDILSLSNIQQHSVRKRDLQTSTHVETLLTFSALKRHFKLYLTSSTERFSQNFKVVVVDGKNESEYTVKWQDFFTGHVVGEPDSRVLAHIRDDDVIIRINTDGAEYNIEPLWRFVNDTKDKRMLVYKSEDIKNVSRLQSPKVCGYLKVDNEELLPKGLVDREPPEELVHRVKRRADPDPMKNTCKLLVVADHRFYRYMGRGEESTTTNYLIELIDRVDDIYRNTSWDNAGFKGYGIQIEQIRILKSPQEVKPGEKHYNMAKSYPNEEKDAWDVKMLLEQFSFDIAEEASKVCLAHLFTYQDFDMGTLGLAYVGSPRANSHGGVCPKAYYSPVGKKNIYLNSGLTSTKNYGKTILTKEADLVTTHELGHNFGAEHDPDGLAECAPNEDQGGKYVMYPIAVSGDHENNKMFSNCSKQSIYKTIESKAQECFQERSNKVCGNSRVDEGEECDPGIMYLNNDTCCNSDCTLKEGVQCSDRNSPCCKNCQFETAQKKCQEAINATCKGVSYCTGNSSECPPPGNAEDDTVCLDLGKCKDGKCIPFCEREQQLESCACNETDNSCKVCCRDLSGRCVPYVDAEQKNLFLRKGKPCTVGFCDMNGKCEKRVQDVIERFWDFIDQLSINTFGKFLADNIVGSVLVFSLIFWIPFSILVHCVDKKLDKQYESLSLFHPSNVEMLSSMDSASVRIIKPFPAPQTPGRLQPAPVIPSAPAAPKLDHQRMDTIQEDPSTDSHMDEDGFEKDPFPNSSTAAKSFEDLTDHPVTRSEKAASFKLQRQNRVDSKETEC

SMILES: COc1oc(=O)c2cc(N)ccc2c1Cl
- IC50 (Gamma-secretase [5]): 30000 nM

SMILES: CC1=C(C(=O)OC2CCCCC2)C(c2ccc([N+](=O)[O-])cc2)C2=C(CC(C)(C)CC2=O)N1 (configuration not stated)
- IC50 (Gamma-secretase [6]): 2300 nM

SMILES: CCCCCCCCCC(=O)N[C@@H](CCCNC(=N)N)C(=O)N[C@H](C(=O)N[C@@H](CCCCN)C(=O)N[C@@H](CCCNC(=N)N)C(=O)CCl)C(C)C (Decanoyl-RVKR-CH2Cl)
- Ki [7]: 2 nM
- Ki [8]: 0.36 nM

SMILES: O=C(O)CC[C@H]1CC[C@@](c2cc(F)ccc2F)(S(=O)(=O)c2ccc(Cl)cc2)CC1 [MK-0752]
- IC50 (Gamma-secretase [11]): 5 nM

SMILES: CC(C)[C@H](O)C(=O)N[C@@H](C)C(=O)N[C@@H]1C(=O)N(C)CCc2ccccc21
- IC50 (Gamma-secretase [12]): 10.9 to 12.1 nM
- IC50 (Gamma-secretase [13]): 14.1 nM

SMILES: CC(C)C[C@H](NC(=O)[C@H](Cc1ccccc1)C[C@@H](O)[C@H](Cc1ccccc1)NC(=O)OC(C)(C)C)C(=O)N[C@@H](Cc1ccccc1)C(N)=O
- IC50 (Gamma-secretase [14]): 17 nM
- IC50 (Gamma-secretase [15]): 115 to 200 nM

SMILES: O=S(=O)(N[C@H](CO)C(C(F)(F)F)C(F)(F)F)c1ccc(Cl)s1 [BEGACESTAT]
- IC50 (Gamma-secretase [16]): 208 nM
- IC50 (Gamma-secretase [17]): 14.8 nM

SMILES: CC(C)CC(CC(=O)NO)C(=O)N[C@@H](Cc1ccc2ccccc2c1)C(=O)N[C@@H](C)C(=O)NCCN (some centres not stated)
- IC50 [18]: 8100 nM

Further lines, with some results ahead:

- EC50 (Gamma-secretase [1]): 5 nM
- EC50 (Gamma-secretase [2]): 14 nM
SMILES: CC(C)(C(=O)NCC(F)(F)C(F)(F)F)C(=O)N[C@@H]1C(=O)Nc2ccccc2-c2ccccc21 [RG-4733]
- TGI (A549): 66 - 91%

- IC50 (Gamma-secretase [3]): 115 to 200 nM
- IC50 (Gamma-secretase [4]): 500 nM
SMILES: C[C@H](NC(=O)Cc1cc(F)cc(F)c1)C(=O)N[C@H](C(=O)OC(C)(C)C)c1ccccc1

- IC50 (Gamma-secretase [9]): 2.9 nM
- IC50 (Gamma-secretase [10]): 2.6 nM
SMILES: C[C@H](NC(=O)Cc1cc(F)cc(F)c1)C(=O)N[C@@H]1C(=O)N(C)c2ccccc2-c2ccccc21

- IC50 (Gamma-secretase [19]): 0.27 nM
SMILES: CC(C)[C@H](O)C(=O)N[C@@H](C)C(=O)N[C@@H]1C(=O)N(C)c2ccccc2-c2ccccc21

- IC50 (Gamma-secretase [13]): 0.41 nM
SMILES: C[C@H](NC(=O)CCC(F)(F)F)C(=O)N[C@H]1C(=O)N(CCO)c2ncccc2-c2ccccc21

- IC50 (Gamma-secretase [20]): 100000 nM
SMILES: C[C@@H](C(=O)O)c1ccc(-c2ccccc2)c(F)c1 [TARENFLURBIL]
